Results on 6 compounds are retold here after ChEMBL document CHEMBL1909046, “DrugMatrix in vitro pharmacology data”.

In the first assay the target is T1, Alpha-1B adrenergic receptor (Rattus norvegicus, UniProt P15823).
T1 sequence (P15823 whole entry): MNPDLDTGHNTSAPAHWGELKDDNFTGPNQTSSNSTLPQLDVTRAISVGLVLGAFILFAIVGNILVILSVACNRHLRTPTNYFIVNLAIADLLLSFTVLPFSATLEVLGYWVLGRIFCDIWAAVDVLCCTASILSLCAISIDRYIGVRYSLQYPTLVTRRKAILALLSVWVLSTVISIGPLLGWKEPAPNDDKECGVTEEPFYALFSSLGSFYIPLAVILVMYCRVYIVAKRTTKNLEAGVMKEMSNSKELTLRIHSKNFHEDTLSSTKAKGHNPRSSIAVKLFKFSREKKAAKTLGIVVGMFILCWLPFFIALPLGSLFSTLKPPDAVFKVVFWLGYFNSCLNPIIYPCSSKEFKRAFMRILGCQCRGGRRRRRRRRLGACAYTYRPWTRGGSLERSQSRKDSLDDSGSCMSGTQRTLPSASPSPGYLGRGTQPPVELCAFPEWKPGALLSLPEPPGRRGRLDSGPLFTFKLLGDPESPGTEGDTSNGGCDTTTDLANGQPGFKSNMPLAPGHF
Kind of assay: DRUGMATRIX: Alpha-1B adrenergic receptor radioligand binding (ligand: prazosin). It is filed as cell membranes, Wistar, Liver, Membrane. The following applies: Not Active = under 50% inhibition at 10 µM.
The term IC50 denotes the point on the concentration scale where inhibition reaches its midpoint. As to `O=S(=O)([O-])CCS.[Na+]` [MESNA], the IC50 result is “Not Active”.

In the case of `C#C[C@]1(O)CC[C@H]2[C@@H]3CCc4cc(OC)ccc4[C@H]3CC[C@@]21C` [MESTRANOL], the IC50 result was “Not Active”.

`CC(=O)Nc1cccc(O)c1` [METACETAMOL]: the IC50 result is listed as “Not Active”.

Regarding `Cc1ncc([N+](=O)[O-])n1CCO` [METRONIDAZOLE], the IC50 result was “Not Active”.

In the case of `CC(C)(C(=O)c1cccnc1)c1cccnc1` [METYRAPONE], the IC50 result is reported as “Not Active”.

Take `Oc1ccc(OCc2ccccc2)cc1` [MONOBENZONE]: the IC50 entry is on record as “Not Active”.

The target in a further assay is T2, Thromboxane-A synthase (Homo sapiens, UniProt P24557).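 Note: enzyme inhibition assay with PGH2 supplied as substrate; in other assays of this panel Not Active means under 50% inhibition at 10 µM.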
T2 sequence (P24557 whole entry): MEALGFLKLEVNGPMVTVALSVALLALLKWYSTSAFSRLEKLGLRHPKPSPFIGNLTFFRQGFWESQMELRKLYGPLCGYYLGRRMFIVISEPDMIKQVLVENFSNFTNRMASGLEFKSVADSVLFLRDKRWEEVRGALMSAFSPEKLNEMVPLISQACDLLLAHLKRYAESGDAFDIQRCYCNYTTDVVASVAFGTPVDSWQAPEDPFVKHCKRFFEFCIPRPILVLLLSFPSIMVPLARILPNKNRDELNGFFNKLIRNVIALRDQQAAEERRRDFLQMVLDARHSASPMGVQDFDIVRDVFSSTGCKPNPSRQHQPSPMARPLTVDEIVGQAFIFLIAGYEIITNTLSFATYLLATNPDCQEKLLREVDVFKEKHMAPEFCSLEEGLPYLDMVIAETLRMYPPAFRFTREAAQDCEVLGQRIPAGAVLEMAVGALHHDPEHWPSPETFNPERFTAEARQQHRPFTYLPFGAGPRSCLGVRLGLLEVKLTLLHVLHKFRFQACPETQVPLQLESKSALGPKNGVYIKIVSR
The assay can be described thus: biochemical. The following applies: platelet. The assay is classed as tissue-based, Platelet.
`O=S(=O)([O-])CCS.[Na+]` [MESNA]: the IC50 result is reported as “Not Active”.

Turning to `C#C[C@]1(O)CC[C@H]2[C@@H]3CCc4cc(OC)ccc4[C@H]3CC[C@@]21C` [MESTRANOL], the IC50 entry is recorded as “Not Active”.

Turning to `CC(=O)Nc1cccc(O)c1` [METACETAMOL], the IC50 result is recorded as “Not Active”.

For `Cc1ncc([N+](=O)[O-])n1CCO` [METRONIDAZOLE], the IC50 result is given as “Not Active”.

As to `CC(C)(C(=O)c1cccnc1)c1cccnc1` [METYRAPONE], the IC50 entry was “Not Active”.

Regarding `Oc1ccc(OCc2ccccc2)cc1` [MONOBENZONE], the IC50 result is recorded as “Not Active”.

The target of another assay is T3, C-X-C chemokine receptor type 1 (Homo sapiens, UniProt P25024). Note: in other assays of this panel Not Active means under 50% inhibition at 10 µM.
T3 sequence (P25024 whole entry): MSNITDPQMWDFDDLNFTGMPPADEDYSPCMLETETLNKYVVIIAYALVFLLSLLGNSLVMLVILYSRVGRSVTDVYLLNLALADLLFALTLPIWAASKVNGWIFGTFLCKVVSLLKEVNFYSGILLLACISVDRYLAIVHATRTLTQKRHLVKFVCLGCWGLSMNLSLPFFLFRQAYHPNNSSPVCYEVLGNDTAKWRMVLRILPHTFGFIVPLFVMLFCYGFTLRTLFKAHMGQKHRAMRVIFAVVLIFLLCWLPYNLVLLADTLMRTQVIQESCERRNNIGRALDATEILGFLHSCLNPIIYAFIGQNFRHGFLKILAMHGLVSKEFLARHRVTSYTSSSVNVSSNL
Assay: not given
Details: not given
Turning to `O=S(=O)([O-])CCS.[Na+]` [MESNA], the half-inhibitory concentration (IC50) result is listed as “Not Active”.

For `C#C[C@]1(O)CC[C@H]2[C@@H]3CCc4cc(OC)ccc4[C@H]3CC[C@@]21C` [MESTRANOL], the concentration for half-maximal inhibition (IC50) result was “Not Active”.

As for `CC(=O)Nc1cccc(O)c1` [METACETAMOL], the IC50 result is “Not Active”.

`Cc1ncc([N+](=O)[O-])n1CCO` [METRONIDAZOLE]: the IC50 entry is on record as “Not Active”.

As to `CC(C)(C(=O)c1cccnc1)c1cccnc1` [METYRAPONE], the IC50 entry was “Not Active”.

`Oc1ccc(OCc2ccccc2)cc1` [MONOBENZONE]: the IC50 result is reported as “Not Active”.

For a further assay, the target named is Prostaglandin G/H synthase 1 (Homo sapiens, UniProt P23219). The assay can be described thus: biochemical. The assay is classed as tissue-based, Platelet. To be noted: platelet.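 Note: inhibition of COX-1 enzyme activity, with arachidonic acid supplied as substrate; in other assays of this panel Not Active means under 50% inhibition at 10 µM.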
Chain of Prostaglandin G/H synthase 1 (P23219 whole entry): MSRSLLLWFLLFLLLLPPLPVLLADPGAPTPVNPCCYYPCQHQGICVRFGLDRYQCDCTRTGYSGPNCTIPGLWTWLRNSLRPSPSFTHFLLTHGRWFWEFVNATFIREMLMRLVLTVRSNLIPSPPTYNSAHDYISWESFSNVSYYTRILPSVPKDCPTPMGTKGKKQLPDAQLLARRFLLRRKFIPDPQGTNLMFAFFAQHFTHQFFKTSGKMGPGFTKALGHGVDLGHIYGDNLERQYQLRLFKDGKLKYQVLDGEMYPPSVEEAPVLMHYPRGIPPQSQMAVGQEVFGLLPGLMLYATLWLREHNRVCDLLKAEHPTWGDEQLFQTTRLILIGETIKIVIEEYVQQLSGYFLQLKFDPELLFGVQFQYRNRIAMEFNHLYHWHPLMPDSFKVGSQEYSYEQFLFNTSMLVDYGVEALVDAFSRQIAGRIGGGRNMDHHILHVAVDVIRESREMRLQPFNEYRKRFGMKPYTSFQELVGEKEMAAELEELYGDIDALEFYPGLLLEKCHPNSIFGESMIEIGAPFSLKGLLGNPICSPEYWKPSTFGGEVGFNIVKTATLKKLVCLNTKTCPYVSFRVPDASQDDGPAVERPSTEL
Take `O=S(=O)([O-])CCS.[Na+]` [MESNA]: the IC50 result was “Not Active”.

With `C#C[C@]1(O)CC[C@H]2[C@@H]3CCc4cc(OC)ccc4[C@H]3CC[C@@]21C` [MESTRANOL], the IC50 result is listed as “Not Active”.

Turning to `CC(=O)Nc1cccc(O)c1` [METACETAMOL], the IC50 entry is on record as “Not Active”.

For the compound `Cc1ncc([N+](=O)[O-])n1CCO` [METRONIDAZOLE], the half-inhibitory concentration (IC50) result is listed as “Not Active”.

Regarding `CC(C)(C(=O)c1cccnc1)c1cccnc1` [METYRAPONE], the IC50 entry is given as “Not Active”.

The same assay, now with this note: read-out: IC50.
As to `Oc1ccc(OCc2ccccc2)cc1` [MONOBENZONE], the IC50 turned out to be 1020 nM.

Another assay concerns the target Glycine receptor (Rattus norvegicus, UniProt P22771+P24524+P07727+P20781). Note: in other assays of this panel Not Active means under 50% inhibition at 10 µM.
Assay: not given
The assay is classed as cell membranes, Wistar, Spinal cord, Membrane.
Details: not given
`O=S(=O)([O-])CCS.[Na+]` [MESNA]: the IC50 result is reported as “Not Active”.

Take `C#C[C@]1(O)CC[C@H]2[C@@H]3CCc4cc(OC)ccc4[C@H]3CC[C@@]21C` [MESTRANOL]: the IC50 entry is on record as “Not Active”.

Turning to `CC(=O)Nc1cccc(O)c1` [METACETAMOL], the 50% inhibitory concentration (IC50) entry is “Not Active”.

For `Cc1ncc([N+](=O)[O-])n1CCO` [METRONIDAZOLE], the 50% inhibitory concentration (IC50) entry is “Not Active”.

Take `CC(C)(C(=O)c1cccnc1)c1cccnc1` [METYRAPONE]: the concentration for half-maximal inhibition (IC50) result was “Not Active”.

Consider `Oc1ccc(OCc2ccccc2)cc1` [MONOBENZONE], for which the IC50 entry is given as “Not Active”.

The next assay deals with T4, Leukotriene C4 synthase (Cavia porcellus, UniProt A6XA80).
T4 sequence (A6XA80 whole entry): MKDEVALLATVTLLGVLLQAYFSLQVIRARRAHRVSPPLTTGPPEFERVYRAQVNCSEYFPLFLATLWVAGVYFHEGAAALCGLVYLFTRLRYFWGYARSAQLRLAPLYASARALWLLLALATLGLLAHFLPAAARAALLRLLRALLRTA
Assay: not given
The assay is classed as tissue-based, Lung.
Details: not given
Turning to `O=S(=O)([O-])CCS.[Na+]` [MESNA], the IC50 entry is “Not Active”.

As to `C#C[C@]1(O)CC[C@H]2[C@@H]3CCc4cc(OC)ccc4[C@H]3CC[C@@]21C` [MESTRANOL], the IC50 entry was “Not Active”.

For the compound `CC(=O)Nc1cccc(O)c1` [METACETAMOL], the IC50 entry is given as “Not Active”.

Regarding `Cc1ncc([N+](=O)[O-])n1CCO` [METRONIDAZOLE], the IC50 result is “Not Active”.

Regarding `CC(C)(C(=O)c1cccnc1)c1cccnc1` [METYRAPONE], the IC50 entry is recorded as “Not Active”.

With `Oc1ccc(OCc2ccccc2)cc1` [MONOBENZONE], the IC50 entry is on record as “Not Active”.

Another assay deals with T5, Cathepsin G (Homo sapiens, UniProt P08311).
T5 sequence (P08311 whole entry): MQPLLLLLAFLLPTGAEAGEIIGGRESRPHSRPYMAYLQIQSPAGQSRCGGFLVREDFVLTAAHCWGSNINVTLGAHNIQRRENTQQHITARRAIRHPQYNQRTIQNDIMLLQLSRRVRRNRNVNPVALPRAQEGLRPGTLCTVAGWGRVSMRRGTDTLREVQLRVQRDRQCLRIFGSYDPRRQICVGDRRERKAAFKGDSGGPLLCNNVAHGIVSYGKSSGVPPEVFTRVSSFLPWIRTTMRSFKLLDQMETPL
Assay: not given
The assay is classed as tissue-based. The following applies: neutrophil.
`O=S(=O)([O-])CCS.[Na+]` [MESNA]: the IC50 result is “Not Active”.

`C#C[C@]1(O)CC[C@H]2[C@@H]3CCc4cc(OC)ccc4[C@H]3CC[C@@]21C` [MESTRANOL]: the IC50 entry was “Not Active”.

In the case of `CC(=O)Nc1cccc(O)c1` [METACETAMOL], the concentration for half-maximal inhibition (IC50) entry was “Not Active”.

With `Cc1ncc([N+](=O)[O-])n1CCO` [METRONIDAZOLE], the IC50 result is listed as “Not Active”.

Turning to `CC(C)(C(=O)c1cccnc1)c1cccnc1` [METYRAPONE], the IC50 result is listed as “Not Active”.

Turning to `Oc1ccc(OCc2ccccc2)cc1` [MONOBENZONE], the IC50 entry is on record as “Not Active”.

A further assay deals with T6, Neutrophil elastase (Homo sapiens, UniProt P08246).
T6 sequence (P08246 whole entry): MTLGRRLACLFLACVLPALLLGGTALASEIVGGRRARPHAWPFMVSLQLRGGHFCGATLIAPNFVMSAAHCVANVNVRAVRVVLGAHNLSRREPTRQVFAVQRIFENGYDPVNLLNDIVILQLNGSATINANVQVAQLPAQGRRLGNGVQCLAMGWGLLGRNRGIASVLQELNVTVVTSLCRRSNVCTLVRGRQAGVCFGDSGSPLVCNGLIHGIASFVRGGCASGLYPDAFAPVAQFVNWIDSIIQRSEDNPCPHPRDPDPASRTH
Assay: not given
The assay is classed as tissue-based.
Details: not given
As to `O=S(=O)([O-])CCS.[Na+]` [MESNA], the IC50 entry is listed as “Not Active”.

Regarding `C#C[C@]1(O)CC[C@H]2[C@@H]3CCc4cc(OC)ccc4[C@H]3CC[C@@]21C` [MESTRANOL], the IC50 result is “Not Active”.

For `CC(=O)Nc1cccc(O)c1` [METACETAMOL], the IC50 result is given as “Not Active”.

In the case of `Cc1ncc([N+](=O)[O-])n1CCO` [METRONIDAZOLE], the IC50 entry is “Not Active”.

For `CC(C)(C(=O)c1cccnc1)c1cccnc1` [METYRAPONE], the 50% inhibitory concentration (IC50) entry is “Not Active”.

With `Oc1ccc(OCc2ccccc2)cc1` [MONOBENZONE], the IC50 entry is reported as “Not Active”.

In the next assay the target is T7, Interstitial collagenase (Homo sapiens, UniProt P03956).
T7 sequence (P03956 whole entry): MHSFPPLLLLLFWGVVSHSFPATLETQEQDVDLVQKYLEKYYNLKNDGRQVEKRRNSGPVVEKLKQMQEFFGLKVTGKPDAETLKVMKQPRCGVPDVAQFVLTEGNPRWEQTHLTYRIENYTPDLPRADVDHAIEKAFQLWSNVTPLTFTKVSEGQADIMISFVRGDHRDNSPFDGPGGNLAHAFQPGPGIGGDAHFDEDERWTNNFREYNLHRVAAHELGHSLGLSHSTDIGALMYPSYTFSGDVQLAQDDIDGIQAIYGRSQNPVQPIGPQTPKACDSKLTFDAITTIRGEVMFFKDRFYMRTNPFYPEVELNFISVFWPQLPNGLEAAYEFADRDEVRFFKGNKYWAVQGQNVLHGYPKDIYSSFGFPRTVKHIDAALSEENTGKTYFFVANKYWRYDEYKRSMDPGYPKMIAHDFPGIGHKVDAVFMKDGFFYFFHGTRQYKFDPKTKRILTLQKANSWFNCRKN
Kind of assay: biochemical. It is filed as tissue-based, Rheumatoid synovial fibroblasts.
Details: not given
For `O=S(=O)([O-])CCS.[Na+]` [MESNA], the IC50 result is listed as “Not Active”.

Consider `C#C[C@]1(O)CC[C@H]2[C@@H]3CCc4cc(OC)ccc4[C@H]3CC[C@@]21C` [MESTRANOL], for which the IC50 entry was “Not Active”.

Turning to `CC(=O)Nc1cccc(O)c1` [METACETAMOL], the IC50 entry is listed as “Not Active”.

Turning to `Cc1ncc([N+](=O)[O-])n1CCO` [METRONIDAZOLE], the IC50 result is given as “Not Active”.

Take `CC(C)(C(=O)c1cccnc1)c1cccnc1` [METYRAPONE]: the IC50 result is on record as “Not Active”.

Regarding `Oc1ccc(OCc2ccccc2)cc1` [MONOBENZONE], the IC50 entry was “Not Active”.
